Laboratory results taken from patent publication US11707557B2, “Compositions and devices incorporating water-insoluble therapeutic agents and methods of the use thereof” (COOK MEDICAL TECHNOLOGIES LLC, priority 2014, dated 2023).
≈ marks a conversion by molar mass, not a printed value.

Assays:
[1] = Liquid pharmaceutical excipients in gallate based pastes (solubility, viscosity score, pellet in water); format: physicochemical
From the text: Various additional water/soluble/miscible liquids were explored (in addition to propylene glycol and polyethylene glycol) as excipients in gallate based pastes.
A viscosity score was established as follows: 1) Fluid—22 gauge needle; 2) Semi Viscous—18 gauge needle; 3) Viscous—16 gauge needle; 4) Waxy Pellet in water.

[2] = physchem
Experimental: (§1) PBS (EGCG) or water (tannic acid) was added and the final solution filtered through a 0.22 micron filter to remove any particulates. The solutions were analyzed for drug concentration using HPLC.
(§2) PBS (EGCG) or water (tannic acid) was added and the final solution filtered through a 0.22 micron filter to remove particulates. The solution was then analyzed for drug concentration using absorbance spectroscopy at 450 nm.
(§3) PBS (EGCG) or water (tannic acid) was added and the final solution was filtered through a 0.22 micron filter to remove any particulates and the solution was analyzed for drug concentration using HPLC.
(§4) PBS (EGCG) or water (tannic acid) was added and the final solution filtered through a 0.22 micron filter to remove any particulates and the solution was analyzed for drug concentration using HPLC.
(§5) PBS (EGCG) or water (Tannic acid) was added and the final solution was filtered through a 0.22 um filter to remove any particulates and the solution was analyzed for drug concentration using HPLC.
(§6) Method: drug and EGCG or tannic acid were dried down from acetonitrile (or methanol for tannic acid) solutions at various drug to EGCG or tannic acid ratios. PBS (EGCG) or water (Tannic acid pH adjusted to 7) was added and the final solution was filtered through a 0.22 um filter to remove any particulates and the solution was analyzed for drug concentration using HPLC methods.

[3] = Drug concentrations obtained using EGCG at 50 mg per ml (microscopic check for particulates); format: physicochemical
Experimental: EGCG at 50 mg/ml and drug at approximately 250 micrograms per ml were dissolved in the listed solvent and dried down in a test tube under nitrogen. 1 ml of water was added, followed by vortexing. The solutions were examined for particulate matter under a microscope. If no particulates were present, the process was repeated with a higher drug amount. All the tested drugs remained in solution at the listed concentrations except for nystatin and hesperidin.

[4] = 24 h
Experimental: as §1, §2, §3, §4, §5, §6

[5] = test system: Caco2 cells; assay: Uptake and transfer of amphoterecin B into Caco2 cells; format: in vitro ADME, human; details: 3 hours, versus ambisome
Experimental: Caco2 cells were seeded onto 0.3 um transwell membranes and treated as in Example 9. A solution of amphoterecin B (250 ug per ml) in EGCG (25 mg per ml), tannic acid (25 mg/ml) in Hanks buffer pH 7.4. or ambisome was added to the top well for 3 hours. The bottom reservoir was collected and treated as in Example 8.

[6] = Drug release from injectable PG:gallate pastes (60:40) into PBS; format: physicochemical; details: 60:40 PG:EGCG or PG:tannic acid, 2% w/w drug, PBS pH 7.4, 37° C.
Experimental: Methods: 60:40% w/w PG:EGCG or PG:tannic acid was used in these studies. 588 mg of propylene glycol was weighed into a 20 mL glass vials and 392 of EGCG or tannic acid was added followed by vortexing to distribute and dissolve the gallates. The vials were warmed to 60° C. and vortexed until all the contents were in solution. At this time 20 mg of drug was added (2% w/w) and vortexed until in solution. The following drugs were used: paclitaxel, docetaxel, retinoic acid, amphotericin B, and curcumin. 100 mg of each paste was weighed into the base of a 15 mL glass test tube and 10 mL of phosphate buffered saline was added at pH 7.4 and the tubes were incubated at 37° C. for certain times. All 10 mL of the PBS release media was removed and 1 mL analyzed by HPLC for drug content. 10 mL of fresh PBS was then added to all tubes

[7] = physchem; format: physicochemical; details: for solubility: thermodynamic from solid
Experimental: Method: Solutions of finasteride and either EGCG or tannic acid at various weight percentages in ethanol were dried down under nitrogen. Water was added and the dried material suspended/dissolved. […] The pH of tannic acid solutions was brought up to 7 by the addition of NAOH.

[8] = Release of finasteride from PVA foam embolization particles and Embospheres; format: physicochemical
Experimental: Method: PVA foam embolization particles (Cook. Medical Bloomington Ind.) size 180-300 um. Vial of 220 mg split into two. 150 mg of EGCG with 10 mg of finasteride or 250 mg tannic acid with 1 mg of finasteride were dried as a common film from ethanol and solubilised in 1 ml of water and added to the 100 mg of PVA particles. Solutions were mixed for 30 minutes. At this time it was observed that all the EGCG or tannic acid color (pink or brown respectively) had disappeared from the solution and gone into the PVA which was now heavily colored. The solution was discarded and the PVA freeze dried. 10 mg of the EGCG formulation or 5 mg of the tannic acid formulation was added to 2 ml of PBS (pH 7.4) and the release of finasteride was measured over 2 weeks.
Embospheres: Syringe contents ((Embospheres 500-700 um Merit Medical S. Jordan Utah) were split into two and incubated in water solutions of finasteride (1 mg/ml in 35 mg of EGCG or tannic acid made up from dried films as above) for 30 minutes with shaking. At this time it was observed that all the EGCG or tannic acid color (pink or brown respectively) had disappeared from the solution and gone into the Embospheres which were no heavily colored. The solution was discarded. 20% of the resulting particles (still wet) were then placed in microcentrifuge tubes containing 2 ml of PBS and drug release was measured.

[9] = Release from PLGA microspheres +/- EGCG or tannic acid; format: physicochemical; details: for drug released: first 20 days
Experimental: Method: The method involved pipetting a solution of the polymer PLGA (usually 20% w/v) and drug (usually 5% w/w to polymer) and EGCG (e.g. 20% w/w/ to polymer) in dichlomethane (DCM) (5 ml) into 100 ml of 2.5% PVA solution in water stirring at 450 rpm. The suspension was left stirring for 2 hours and the microspheres washed 4 times in distilled water. The microspheres were then dried under vacuum for 2 days. Drug encapsulation was measured by dissolving a known weight of microspheres in 1 ml of dichloromethane followed by immediate dilution to 10 ml in 60:40 acetonitrile/water. The amount of drug or EGCG in the top and bottom phase of this solution was measured using HPLC methods (mobile phase 58:37:5 Acetonitrile:water:methanol. 1 ml per min flow on a c18 column with detection at 232 nm)
Tannic acid: An alternative method was used, termed a water-in oil-in water emulsion. […] This forms a primary emulsion of water droplets in the PLGA solution stabilized by Span. When this emulsion was pipetted into the PVA solution the microspheres formed well. […] The microspheres were a light brown in color indicative of tannic acid encapsulation.
Methods: In these studies, 10 mg of microspheres were suspended in 2 ml of phosphate buffered saline (pH 7.4 10 mM phosphate) in microcentrifuge tubes and tumbled at 8 rpm at 37° C. The tubes were then centrifuged at 12000×g and the supernatants collected for drug analysis by HPLC. 2 ml of fresh PBS was then placed on top of the microspheres which were returned to the 37° C. oven for continued incubation with tumbling.
At the end of the study the residual mass of polymer and drug was dissolved in DCM and drug extracted into 60:40 acetonitrile:water to measure residual drug. The amounts of residual drug were 89% for plga alone (at 31 days), 16% for EGCG and 8% for tannic acid (both at 51 days) as expressed as a % of the original loading.

[10] = aqueous with cosolvent or surfactant or cyclodextrin, thermodynamic from solid, drug concentration solubilised at maximum EGCG concentration

Tween 80
Solubility of EGCG in excipient [1]: 15% | Solubility of tannic acid in excipient [1]: 15%

C[C@@H]1[C@H](O)[C@@H](C)/C=C/C=C/C=C/C=C/C=C/C=C/C=C/[C@H](O[C@@H]2O[C@H](C)[C@@H](O)[C@H](N)[C@@H]2O)C[C@@H]2O[C@](O)(C[C@@H](O)C[C@@H](O)[C@H](O)CC[C@@H](O)C[C@@H](O)CC(=O)O[C@H]1C)C[C@H](O)[C@H]2C(=O)O [amphotericin, amphotericin B]
solubility [2, 10]: ~1.8 mg/mL (≈ 1.95 mM) | solubility ([2]; aqueous with cosolvent or surfactant or cyclodextrin, thermodynamic from solid, drug concentration solubilised at maximum tannic acid concentration): ~5.7 mg/mL (≈ 6.17 mM) | solubility ([2]; water, free solubility in water): 0.001 to 0.01 mg/mL (≈ 0.00108 to 0.0108 mM) | Visual appearance [3]: clear | Drug Concentration ([3]; 1 ml of water): 125 microgram/ml | Particulates present ([3]; under a microscope): no | stability of EGCG solutions of the drug [4]: stable for 24 hours | stability of tannic acid solutions of the drug [4]: stable for 24 hours | drug uptake and transport through the cells ([5]; 250 ug per ml in EGCG 25 mg per ml): much higher levels | drug uptake and transport through the cells ([5]; 250 ug per ml in tannic acid 25 mg/ml): much higher levels | drug release from PG:gallate paste [6]: relatively controlled release of the drug over 24 hours

CC(C)(C)NC(=O)[C@H]1CC[C@H]2[C@@H]3CC[C@H]4NC(=O)C=C[C@]4(C)[C@H]3CC[C@]12C [finasteride]
solubility [2, 10]: ~11 mg/mL (≈ 29.5 mM) | solubility ([2]; pH 7, aqueous with cosolvent or surfactant or cyclodextrin, thermodynamic from solid, drug concentration solubilised at maximum tannic acid concentration): ~10 mg/mL (≈ 26.8 mM) | stability of solutions ([7]; 24 h): stable over 24 hours | solubility ([7]; aqueous with cosolvent or surfactant or cyclodextrin): > 10 mg/mL | solubility ([7]; pH 7, aqueous with cosolvent or surfactant or cyclodextrin): 8 to 10 mg/mL (≈ 21.5 to 26.8 mM) | solubility ([7]; water): 0.075 mg/mL (≈ 0.201 mM) | stability of EGCG solutions of the drug [4]: stable for 24 hours | stability of tannic acid solutions of the drug [4]: stable for 24 hours | finasteride release ([8]; PVA incubated with tannic acid/finasteride solution, PBS, in 3 days): 100% | period of finasteride release ([8]; the other embolic particles (PVA with EGCG, Embospheres with EGCG or tannic acid)): over a two week period | drug released ([9]; PLGA microspheres with EGCG): approx 80% | drug released ([9]; PLGA microspheres with tannic acid): approx 80% | encapsulated drug released ([9]; PLGA microspheres without EGCG or tannic acid, after 32 days): 7% | residual drug as % of the original loading ([9]; PLGA with EGCG, at 51 days): 16% | residual drug as % of the original loading ([9]; PLGA with tannic acid, at 51 days): 8% | residual drug as % of the original loading ([9]; plga alone, at 31 days): 89%
